The numbers were not newly measured in US8937081B2, “Statin bioavailability enhancement delivery composition” (PruGen IP Holdings, Inc., priority 2011, dated 2015), which cites them from elsewhere.

For series [1] the following is noted: among the marketed statins.
In another series the test system is hepatocytes. The settings on record: in hepatocytes.

Consider `COCc1c(C(C)C)nc(C(C)C)c(/C=C/[C@@H](O)C[C@@H](O)CC(=O)O)c1-c1ccc(F)cc1` [cerivastatin], for which, in series [1], the “percentage of serious adverse effects” value is “largest percentage of serious adverse effects”.

On to `CC(C)c1nc(N(C)S(C)(=O)=O)nc(-c2ccc(F)cc2)c1/C=C/[C@@H](O)C[C@@H](O)CC(=O)O` [rosuvastatin], for which the IC50 entry in the series with hepatocytes is on record as “low”.
